Assay results reported in patent US20250320213A1, “Nitrogen-Containing Heterocyclic Compounds” (Pfizer Inc., priority 2024, published 2025).

Target: T1, STAT6 (Homo sapiens, UniProt P42226)
T1 construct: stably transfected HaCaT keratinocyte cell line, which expresses NanoLuc luciferase reporter gene under the transcriptional control of the STAT6 responsive promoter; endogenous in cells; host or cells: HaCaT keratinocyte reporter cell line (stably transfected with a NanoLuc reporter)
T1 sequence (P42226 1-847): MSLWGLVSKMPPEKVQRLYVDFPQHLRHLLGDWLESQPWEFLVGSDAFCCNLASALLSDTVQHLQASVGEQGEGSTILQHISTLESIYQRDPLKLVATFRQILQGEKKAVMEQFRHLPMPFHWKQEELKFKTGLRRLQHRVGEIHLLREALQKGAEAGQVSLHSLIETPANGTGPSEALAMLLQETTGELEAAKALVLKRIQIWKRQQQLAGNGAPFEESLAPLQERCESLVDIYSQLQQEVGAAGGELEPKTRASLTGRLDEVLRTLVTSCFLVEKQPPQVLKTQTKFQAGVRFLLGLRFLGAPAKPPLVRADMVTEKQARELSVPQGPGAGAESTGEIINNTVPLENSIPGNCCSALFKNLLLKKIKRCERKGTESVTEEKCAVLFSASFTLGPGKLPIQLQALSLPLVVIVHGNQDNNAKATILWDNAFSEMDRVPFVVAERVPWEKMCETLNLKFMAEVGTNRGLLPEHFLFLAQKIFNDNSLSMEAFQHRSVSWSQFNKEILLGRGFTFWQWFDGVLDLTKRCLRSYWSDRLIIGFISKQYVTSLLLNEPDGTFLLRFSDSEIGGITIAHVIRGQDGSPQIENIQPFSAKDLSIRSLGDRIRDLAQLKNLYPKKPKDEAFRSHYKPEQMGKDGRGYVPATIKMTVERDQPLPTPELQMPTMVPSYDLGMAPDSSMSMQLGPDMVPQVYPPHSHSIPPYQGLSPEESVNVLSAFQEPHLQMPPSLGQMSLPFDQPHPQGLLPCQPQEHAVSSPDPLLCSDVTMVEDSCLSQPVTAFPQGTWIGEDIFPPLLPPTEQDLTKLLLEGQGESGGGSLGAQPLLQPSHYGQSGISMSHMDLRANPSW
Experiment: STAT6 Reporter Luciferase Assay (IL-13 stimulated HaCaT keratinocyte NanoLuc reporter cells)
Type: cell-based
Conditions: IL-13 stimulated HaCaT STAT6 NanoLuc reporter cells; read-out: Reporter EC50
Summary of the method: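 HaCaT cells stably carrying a NanoLuc reporter driven by the STAT6-responsive IL-13Ra2 promoter were preincubated with compounds for 2 h at 37 °C in 2% FBS medium. Cells were then stimulated with 0.12 nM IL-13 for 4 h, and luminescence was read after Nano-Glo substrate. Compounds ran as 11-point 4-fold dilutions in duplicate.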

Structure (SMILES)	EC50
Cc1nn(C)c2c1CCN(C(=O)c1ccc(N3CCc4c(c(C(=O)NCc5ccc(NC(=O)N(C)C)cc5)nn4C(C)C)C3)nc1)C2 [Example 418, 5-(5-(1,3-dimethyl-4,5,6,7-tetrahydro-1H-pyrazolo[3,4-c]pyridine-6-carbonyl)pyridin-2-yl)-N-(4-(3,3-dimethylureido)benzyl)-1-isopropyl-4,5,6,7-tetrahydro-1H-pyrazolo[4,3-c]pyridine-3-carboxamide]	61 nM
Cc1cnn2c1CN(C(=O)c1ccc(N3CCc4c(c(C(=O)NCc5ccc(NC(=O)N(C)C)cc5)nn4C(C)C)C3)nc1)CC2 [Example 419, N-(4-(3,3-dimethylureido)benzyl)-1-isopropyl-5-(5-(3-methyl-4,5,6,7-tetrahydropyrazolo[1,5-a]pyrazine-5-carbonyl)pyridin-2-yl)-4,5,6,7-tetrahydro-1H-pyrazolo[4,3-c]pyridine-3-carboxamide]	44 nM
CC(C)n1nc(C(=O)NCc2ccc(NC(=O)N(C)C)cc2)c2c1CCN(c1ccc(C(=O)N3Cc4ccnn4C(C)C3)cn1)C2 (stereo not shown) [Example 424, N-(4-(3,3-dimethylureido)benzyl)-1-isopropyl-5-(5-(7-methyl-4,5,6,7-tetrahydropyrazolo[1,5-a]pyrazine-5-carbonyl)pyridin-2-yl)-4,5,6,7-tetrahydro-1H-pyrazolo[4,3-c]pyridine-3-carboxamide]	46 nM
CC(C)n1nc(C(=O)NCc2ccc(NC(=O)N(C)C)cc2)c2c1CCN(c1ccc(C(=O)N3Cc4ccccc4[C@H]3C)cn1)C2 [Example 426, (R)-N-(4-(3,3-dimethylureido)benzyl)-1-isopropyl-5-(5-(1-methylisoindoline-2-carbonyl)pyridin-2-yl)-4,5,6,7-tetrahydro-1H-pyrazolo[4,3-c]pyridine-3-carboxamide]	13 nM
CC(C)n1nc(C(=O)NCc2ccc(NC(=O)N(C)C)cc2)c2c1CCN(c1ccc(C(=O)N3CCn4nncc4C3)cn1)C2 [Example 427, N-(4-(3,3-dimethylureido)benzyl)-1-isopropyl-5-(5-(4,5,6,7-tetrahydro-[1,2,3]triazolo[1,5-a]pyrazine-5-carbonyl)pyridin-2-yl)-4,5,6,7-tetrahydro-1H-pyrazolo[4,3-c]pyridine-3-carboxamide]	282 nM
CC(C)n1nc(C(=O)NCc2ccc(NC(=O)N(C)C)cc2)c2c1CCN(c1ccc(C(=O)N3CCn4cncc4C3)cn1)C2 [Example 438, N-(4-(3,3-dimethylureido)benzyl)-1-isopropyl-5-(5-(5,6,7,8-tetrahydroimidazo[1,5-a]pyrazine-7-carbonyl)pyridin-2-yl)-4,5,6,7-tetrahydro-1H-pyrazolo[4,3-c]pyridine-3-carboxamide]	105 nM
CC(C)n1nc(C(=O)NCc2ccc(NC(=O)N(C)C)cc2)c2c1CCN(c1ccc(C(=O)N3CCn4c(cccc4=O)C3)cn1)C2 [Example 439, N-(4-(3,3-dimethylureido)benzyl)-1-isopropyl-5-(5-(6-oxo-1,3,4,6-tetrahydro-2H-pyrido[1,2-a]pyrazine-2-carbonyl)pyridin-2-yl)-4,5,6,7-tetrahydro-1H-pyrazolo[4,3-c]pyridine-3-carboxamide]	88 nM
Cc1cc2c(cn1)CN(C(=O)c1ccc(N3CCc4c(c(C(=O)NCc5ccc(NC(=O)N(C)C)cc5)nn4C(C)C)C3)nc1)C2 [Example 440, N-(4-(3,3-dimethylureido)benzyl)-1-isopropyl-5-(5-(6-methyl-2,3-dihydro-1H-pyrrolo[3,4-c]pyridine-2-carbonyl)pyridin-2-yl)-4,5,6,7-tetrahydro-1H-pyrazolo[4,3-c]pyridine-3-carboxamide]	16 nM

Second part, the compound after the results:

EC50	Structure (SMILES)
29 nM	CC(C)n1nc(C(=O)NCc2ccc(NC(=O)N(C)C)cc2)c2c1CCN(c1ccc(C(=O)N3CCc4c(cnn4C)C3)cn1)C2 [Example 416, N-(4-(3,3-dimethylureido)benzyl)-1-isopropyl-5-(5-(1-methyl-4,5,6,7-tetrahydro-1H-pyrazolo[4,3-c]pyridine-5-carbonyl)pyridin-2-yl)-4,5,6,7-tetrahydro-1H-pyrazolo[4,3-c]pyridine-3-carboxamide]
17 nM	CC(C)n1nc(C(=O)NCc2ccc(NC(=O)N(C)C)cc2)c2c1CCN(c1ccc(C(=O)N3CCc4cccnc4C3)cn1)C2 [Example 417, N-(4-(3,3-dimethylureido)benzyl)-1-isopropyl-5-(5-(5,6,7,8-tetrahydro-1,7-naphthyridine-7-carbonyl)pyridin-2-yl)-4,5,6,7-tetrahydro-1H-pyrazolo[4,3-c]pyridine-3-carboxamide]
18 nM	CC(C)n1nc(C(=O)NCc2ccc(NC(=O)N(C)C)cc2)c2c1CCN(c1ccc(C(=O)N3CCc4c(ncn4C)C3)cn1)C2 [Example 421, N-(4-(3,3-dimethylureido)benzyl)-1-isopropyl-5-(5-(1-methyl-4,5,6,7-tetrahydro-1H-imidazo[4,5-c]pyridine-5-carbonyl)pyridin-2-yl)-4,5,6,7-tetrahydro-1H-pyrazolo[4,3-c]pyridine-3-carboxamide]
19 nM	CC(C)n1nc(C(=O)NCc2ccc(NC(=O)N(C)C)cc2)c2c1CCN(c1ccc(C(=O)N3CCc4ccc(C#N)cc4C3)cn1)C2 [Example 422, 5-(5-(7-cyano-1,2,3,4-tetrahydroisoquinoline-2-carbonyl)pyridin-2-yl)-N-(4-(3,3-dimethylureido)benzyl)-1-isopropyl-4,5,6,7-tetrahydro-1H-pyrazolo[4,3-c]pyridine-3-carboxamide]
29 nM	Cc1nc2c(o1)CCN(C(=O)c1ccc(N3CCc4c(c(C(=O)NCc5ccc(NC(=O)N(C)C)cc5)nn4C(C)C)C3)nc1)C2 [Example 423, N-(4-(3,3-dimethylureido)benzyl)-1-isopropyl-5-(5-(2-methyl-4,5,6,7-tetrahydrooxazolo[4,5-c]pyridine-5-carbonyl)pyridin-2-yl)-4,5,6,7-tetrahydro-1H-pyrazolo[4,3-c]pyridine-3-carboxamide]
34 nM	CC(C)n1nc(C(=O)NCc2ccc(NC(=O)N(C)C)cc2)c2c1CCN(c1ccc(C(=O)N3CCn4nccc4C3)cn1)C2 [Example 425, N-(4-(3,3-dimethylureido)benzyl)-1-isopropyl-5-(5-(4,5,6,7-tetrahydropyrazolo[1,5-a]pyrazine-5-carbonyl)pyridin-2-yl)-4,5,6,7-tetrahydro-1H-pyrazolo[4,3-c]pyridine-3-carboxamide]
186 nM	CC(C)n1nc(C(=O)NCc2ccc(NC(=O)N(C)C)cc2)c2c1CCN(c1ccc(C(=O)N3CCc4oncc4C3)cn1)C2 [Example 432, N-(4-(3,3-dimethylureido)benzyl)-1-isopropyl-5-(5-(4,5,6,7-tetrahydroisoxazolo[4,5-c]pyridine-5-carbonyl)pyridin-2-yl)-4,5,6,7-tetrahydro-1H-pyrazolo[4,3-c]pyridine-3-carboxamide]
276 nM	CC(C)n1nc(C(=O)NCc2ccc(NC(=O)N(C)C)cc2)c2c1CCN(c1ccc(C(=O)N3CCc4cncnc4C3)cn1)C2 [Example 433, N-(4-(3,3-dimethylureido)benzyl)-1-isopropyl-5-(5-(5,6,7,8-tetrahydropyrido[3,4-d]pyrimidine-7-carbonyl)pyridin-2-yl)-4,5,6,7-tetrahydro-1H-pyrazolo[4,3-c]pyridine-3-carboxamide]
82 nM	CC(C)n1nc(C(=O)NCc2ccc(NC(=O)N(C)C)cc2)c2c1CCN(c1ccc(C(=O)N3CCc4cnccc4C3)cn1)C2 [Example 434, N-(4-(3,3-dimethylureido)benzyl)-1-isopropyl-5-(5-(1,2,3,4-tetrahydro-2,6-naphthyridine-2-carbonyl)pyridin-2-yl)-4,5,6,7-tetrahydro-1H-pyrazolo[4,3-c]pyridine-3-carboxamide]
10 nM	CC(C)n1nc(C(=O)NCc2ccc(NC(=O)N(C)C)cc2)c2c1CCN(c1ccc(C(=O)N3CCc4ccccc4C3)cn1)C2 [Example 435, N-(4-(3,3-dimethylureido)benzyl)-1-isopropyl-5-(5-(1,2,3,4-tetrahydroisoquinoline-2-carbonyl)pyridin-2-yl)-4,5,6,7-tetrahydro-1H-pyrazolo[4,3-c]pyridine-3-carboxamide]
22 nM	CC(C)n1nc(C(=O)NCc2ccc(NC(=O)N(C)C)cc2)c2c1CCN(c1ccc(C(=O)N3CCc4cc(C#N)ccc4C3)cn1)C2 [Example 436, 5-(5-(6-cyano-1,2,3,4-tetrahydroisoquinoline-2-carbonyl)pyridin-2-yl)-N-(4-(3,3-dimethylureido)benzyl)-1-isopropyl-4,5,6,7-tetrahydro-1H-pyrazolo[4,3-c]pyridine-3-carboxamide]
